Source: PMC9120017, “Inhibition mechanism of the chloride channel TMEM16A by the pore blocker 1PBC” (Nature Communications, 2022)
Read-outs that look alike come from different tables or passages of the source.

Biological target: T1, mouse TMEM16A mutant P595A (Mus musculus, UniProt Q8BHY3, P595A)
T1 construct: expressed in transfected cells; host or cells: HEK293T
T1 sequence (Q8BHY3 1-960 P595A): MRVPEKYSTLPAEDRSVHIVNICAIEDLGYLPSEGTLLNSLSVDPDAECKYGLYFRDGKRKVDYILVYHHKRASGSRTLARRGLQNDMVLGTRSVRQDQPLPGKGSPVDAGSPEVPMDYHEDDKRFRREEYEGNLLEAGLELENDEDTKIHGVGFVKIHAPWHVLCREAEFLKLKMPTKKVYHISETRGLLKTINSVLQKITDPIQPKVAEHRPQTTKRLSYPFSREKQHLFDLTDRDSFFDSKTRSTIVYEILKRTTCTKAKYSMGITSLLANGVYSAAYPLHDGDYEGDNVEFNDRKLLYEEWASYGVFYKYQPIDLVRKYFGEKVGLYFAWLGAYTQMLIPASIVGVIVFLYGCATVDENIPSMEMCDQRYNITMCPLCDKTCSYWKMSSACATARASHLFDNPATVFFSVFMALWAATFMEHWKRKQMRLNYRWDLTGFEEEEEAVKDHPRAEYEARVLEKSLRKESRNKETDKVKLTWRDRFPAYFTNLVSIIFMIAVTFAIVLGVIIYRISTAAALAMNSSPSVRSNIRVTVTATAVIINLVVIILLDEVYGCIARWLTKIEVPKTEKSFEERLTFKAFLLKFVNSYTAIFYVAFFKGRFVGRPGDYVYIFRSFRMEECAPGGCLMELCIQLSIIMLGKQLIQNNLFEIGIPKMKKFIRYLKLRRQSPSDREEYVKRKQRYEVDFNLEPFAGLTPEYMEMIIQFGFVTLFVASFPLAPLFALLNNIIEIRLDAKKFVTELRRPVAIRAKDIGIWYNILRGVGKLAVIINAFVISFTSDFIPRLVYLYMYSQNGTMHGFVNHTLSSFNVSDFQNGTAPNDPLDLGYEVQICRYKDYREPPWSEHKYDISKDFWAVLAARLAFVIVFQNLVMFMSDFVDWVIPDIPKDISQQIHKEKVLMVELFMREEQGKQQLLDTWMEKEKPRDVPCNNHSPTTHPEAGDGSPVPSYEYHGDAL
Assay: Inside-out patch recording of 1PBC block, mutant P595A
Format: cell-based
Details: for remaining activity at 1 µM: 1PBC conc 1; for remaining activity at 1 µM / remaining activity at 3 µM / remaining activity at 10 µM / remaining activity at 30 µM: read-out: relative current in 1PBC (avr); for remaining activity at 3 µM: 1PBC conc 3; for remaining activity at 10 µM: 1PBC conc 10; for remaining activity at 30 µM: 1PBC conc 30
Description: HEK293T cells (ATCC CRL-1573) were maintained in Dulbecco’s modified Eagle’s medium (DMEM; Sigma-Aldrich) supplemented with 10 U ml^−1 penicillin, 0.1 mg ml^−1 streptomycin (Sigma-Aldrich), 2 mM L-glutamine (Sigma-Aldrich), and 10% FBS (Sigma-Aldrich) in a humidified atmosphere containing 5% CO2 at 37 °C. HEK293S GnTI^− cells (ATCC CRL-3022) were maintained in HyClone HyCell TransFx-H medium (GE Healthcare) supplemented with 10 U ml^−1 penicillin, 0.1 mg ml^−1 streptomycin, 4 mM L-glutamine, 0.15% poloxamer 188 (Sigma-Aldrich), and 1% FBS in an atmosphere containing 5% CO2 at 185 rpm at 37 °C. The ac splice variant of mouse TMEM16A (UniProt ID: Q8BHY3), mouse TMEM16B (UniProt ID: Q8CFW1), or mouse TMEM16F (UniProt ID: Q6P9J9) bearing a 3C cleavage site, a Venus YFP, a Myc tag, and a Streptavidin-binding peptide (SBP) downstream of the open reading frame in a modified pcDNA3.1 vector (Invitrogen) were used as described previously[21],[31]. Mutations were introduced using a modified QuikChange method[58] and were verified by sequencing.
HEK293T cells were transfected with 3–4 μg DNA per 6 cm Petri dish using the calcium phosphate co-precipitation method and were used within 24–96 h after transfection. Recordings were performed on inside-out patches excised from HEK293T cells expressing the construct of interest. Patch pipettes were pulled from borosilicate glass capillaries (O.D. 1.5 mm, I.D. 0.86 mm, Sutter Instrument) and were fire-polished with a microforge (Narishige) before use. Pipette resistance was typically 3–8 MΩ when filled with the recording solutions detailed below. Seal resistance was typically 4 GΩ or higher. Voltage-clamp recordings were made using Axopatch 200B, Digidata 1550, and Clampex 10.7 (Molecular Devices). Analog signals were filtered with the in-built 4-pole Bessel filter at 10 kHz and were digitized at 20 kHz. Solution exchange was achieved using a gravity-fed system through a theta glass pipette mounted on an ultra-fast piezo-driven stepper (Siskiyou). […] All recordings were performed at 20 °C.
A symmetrical ionic condition was used throughout. Stock solution with Ca^2+-EGTA contained 150 mM NaCl, 5.99 mM Ca(OH)2, 5 mM EGTA, and 10 mM HEPES at pH 7.40. Stock solution with EGTA contained 150 mM NaCl, 5 mM EGTA, and 10 mM HEPES at pH 7.40. Free Ca^2+ concentrations were adjusted by mixing the stock solutions at the required ratios calculated using the WEBMAXC program (http://web.stanford.edu/~cpatton/webmaxcS.htm). Patch pipettes were filled with the stock solution with Ca^2+-EGTA, which has a free Ca^2+ concentration of 1 mM. 1PBC (ChemBridge) stock was reconstituted in anhydrous DMSO (Sigma-Aldrich) at 100 mM and stored at −20 °C. Working solutions with 1PBC were prepared by serial dilution. Unless otherwise stated, experiments were performed at a saturating Ca^2+ concentration as shown in Supplementary Table 1 and the primary data were corrected for current rundown as described previously[21],[25].
Concentration-response relations, obtained from the ratio of the I-V plots before and after the application of the blocker, were fitted to the Hill equation,1 I/Imax=1/1+IC50/[blocker]^h where I/Imax is the normalized current responses, IC50 defines the concentration at which inhibition is at its half-maximum, and h is the Hill coefficient.

IC50 (0 mV, 2 µM Ca2+): 3.1 µM
remaining activity at 1 µM (0 mV): 75.3%
remaining activity at 3 µM (0 mV): 48.8%
remaining activity at 10 µM (0 mV): 25.9%
remaining activity at 30 µM (0 mV): 11.1%
IC50 (20 mV, 2 µM Ca2+): 2.46 µM
remaining activity at 1 µM (20 mV): 70.9%
remaining activity at 3 µM (20 mV): 43%
remaining activity at 10 µM (20 mV): 22.6%
remaining activity at 30 µM (20 mV): 8.98%
IC50 (40 mV, 2 µM Ca2+): 2 µM
remaining activity at 1 µM (40 mV): 66.5%
remaining activity at 3 µM (40 mV): 38.4%
remaining activity at 10 µM (40 mV): 19%
remaining activity at 30 µM (40 mV): 7.73%
IC50 (60 mV, 2 µM Ca2+): 1.75 µM
remaining activity at 1 µM (60 mV): 64.4%
remaining activity at 3 µM (60 mV): 34.6%
remaining activity at 10 µM (60 mV): 16.9%
remaining activity at 30 µM (60 mV): 7.56%
IC50 (80 mV, 2 µM Ca2+): 1.57 µM
remaining activity at 1 µM (80 mV): 61.3%
remaining activity at 3 µM (80 mV): 32.5%
remaining activity at 10 µM (80 mV): 15.9%
remaining activity at 30 µM (80 mV): 7.06%
IC50 (100 mV, 2 µM Ca2+): 1.48 µM
remaining activity at 1 µM (100 mV): 60.2%
remaining activity at 3 µM (100 mV): 31%
remaining activity at 10 µM (100 mV): 15.3%
remaining activity at 30 µM (100 mV): 6.31%
IC50 (120 mV, 2 µM Ca2+): 1.63 µM
remaining activity at 1 µM (120 mV): 64.3%
remaining activity at 3 µM (120 mV): 31.5%
remaining activity at 10 µM (120 mV): 15.7%
remaining activity at 30 µM (120 mV): 6.66%
IC50 (140 mV, 2 µM Ca2+): 1.91 µM
remaining activity at 1 µM (140 mV): 70.3%
remaining activity at 3 µM (140 mV): 33.2%
remaining activity at 10 µM (140 mV): 17.5%
remaining activity at 30 µM (140 mV): 7.54%
IC50 (-20 mV, 2 µM Ca2+): 3.88 µM
remaining activity at 1 µM (-20 mV): 79.6%
remaining activity at 3 µM (-20 mV): 54.6%
remaining activity at 10 µM (-20 mV): 29.2%
remaining activity at 30 µM (-20 mV): 13.3%
IC50 (-40 mV, 2 µM Ca2+): 4.91 µM
remaining activity at 1 µM (-40 mV): 84%
remaining activity at 3 µM (-40 mV): 59.7%
remaining activity at 10 µM (-40 mV): 33.9%
remaining activity at 30 µM (-40 mV): 15.9%
IC50 (-60 mV, 2 µM Ca2+): 5.83 µM
remaining activity at 1 µM (-60 mV): 87.1%
remaining activity at 3 µM (-60 mV): 62.7%
remaining activity at 10 µM (-60 mV): 37.7%
remaining activity at 30 µM (-60 mV): 18.7%
IC50 (-80 mV, 2 µM Ca2+): 7 µM
remaining activity at 1 µM (-80 mV): 88.8%
remaining activity at 3 µM (-80 mV): 67.8%
remaining activity at 10 µM (-80 mV): 41.3%
remaining activity at 30 µM (-80 mV): 21%
IC50 (-100 mV, 2 µM Ca2+): 8.19 µM
remaining activity at 1 µM (-100 mV): 90.4%
remaining activity at 3 µM (-100 mV): 70.3%
remaining activity at 10 µM (-100 mV): 45%
remaining activity at 30 µM (-100 mV): 24%
IC50 (-120 mV, 2 µM Ca2+): 9.33 µM
remaining activity at 1 µM (-120 mV): 92.2%
remaining activity at 3 µM (-120 mV): 72.9%
remaining activity at 10 µM (-120 mV): 47.9%
remaining activity at 30 µM (-120 mV): 26.1%
IC50 (-140 mV, 2 µM Ca2+): 10.5 µM
remaining activity at 1 µM (-140 mV): 93.8%
remaining activity at 3 µM (-140 mV): 75.4%
remaining activity at 10 µM (-140 mV): 50.3%
remaining activity at 30 µM (-140 mV): 28.4%
IC50 (P595A, V 0 mV): 3.1 µM
IC50 (P595A, V 20 mV): 2.46 µM
IC50 (P595A, V 40 mV): 2 µM
IC50 (P595A, V 60 mV): 1.75 µM
IC50 (P595A, V 80 mV): 1.57 µM
IC50 (P595A, V 100 mV): 1.48 µM
IC50 (P595A, V 120 mV): 1.63 µM
IC50 (P595A, V 140 mV): 1.91 µM
IC50 (P595A, V -20 mV): 3.88 µM
IC50 (P595A, V -40 mV): 4.91 µM
IC50 (P595A, V -60 mV): 5.83 µM
IC50 (P595A, V -80 mV): 7 µM
IC50 (P595A, V -100 mV): 8.19 µM
IC50 (P595A, V -120 mV): 9.33 µM
IC50 (P595A, V -140 mV): 10.5 µM
SMILES: N#Cc1c(C(F)(F)F)cc(O)n2c1nc1ccccc12 [1PBC]
